Measurements published in patent publication US8637549B2, “Pyridons as PDK1 inhibitors” (Boehringer Ingelheim International GmbH, priority 2008, dated 2014).

Target: T1, His6-PDK1 (aa 52-556) (Homo sapiens, UniProt O15530)
T1 construct: 15 μL His6-PDK1 (aa 52-556) 3.33 ng/well) and PDKtide; host or cells: baculovirus-infected insect cells
T1 sequence (O15530 52-556): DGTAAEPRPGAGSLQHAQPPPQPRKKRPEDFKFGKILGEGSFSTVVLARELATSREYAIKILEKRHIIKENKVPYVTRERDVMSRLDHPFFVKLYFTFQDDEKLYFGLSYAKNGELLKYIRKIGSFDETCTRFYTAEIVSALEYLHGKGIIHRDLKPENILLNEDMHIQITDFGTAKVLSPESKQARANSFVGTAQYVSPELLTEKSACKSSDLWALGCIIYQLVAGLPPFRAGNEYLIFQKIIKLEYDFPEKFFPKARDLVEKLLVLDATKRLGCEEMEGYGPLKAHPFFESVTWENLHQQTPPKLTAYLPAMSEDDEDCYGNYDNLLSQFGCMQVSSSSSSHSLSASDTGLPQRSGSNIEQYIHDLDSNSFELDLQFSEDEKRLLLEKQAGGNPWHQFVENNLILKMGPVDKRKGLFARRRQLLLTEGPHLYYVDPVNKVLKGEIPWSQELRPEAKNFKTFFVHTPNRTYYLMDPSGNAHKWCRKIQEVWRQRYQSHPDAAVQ
Test: PDK1 kinase assay III (with Tween 20)
Format: biochemical
Conditions: 10 μM compound, residual enzyme activity relative to DMSO control, unmarked values, read-out: % CTL
Method: Another PDK1 assay was developed which by comparison with PDK1 assay 1 additionally contains Tween 20:
The following components are combined in a well of a 96-well round-based dish (Messrs. Greiner bio-one, No. 650101): • 15 μL of compound to be tested in varying concentrations (e.g. Starting at 10 μM, and diluted in steps of 1:5) in APT buffer (50 mM tris/C1 pH7.5; 0.05% β-mercaptoethanol; 10 mM Mg-acetate; 0.0166% Tween 20; 3.33% DMSO) • 15 μL His6-PDK1 (aa 52-556) 3.33 ng/well) and PDKtide (KTFCGTPEYLAPEVRRE […]), synthesised by Pepceuticals Limited, Nottingham, United Kingdom; 25 μM final concentration); His6-PDK1 and PDKtide are together diluted accordingly in assay buffer (50 mM tris pH 7.5, 0.05% β-mercaptoethanol, 10 mM Mg-acetate); PDKtide is present in this mixture as an 83.3 μM solution. These 30 μL are routinely incubated for 30 min at RT. • 20 μL ATP solution (25 μM ATP with 1.0 μCi/well gamma-P33-ATP). The final concentration of Tween 20 is 0.005%.
The reaction is started by adding the ATP solution and the mixture is incubated for 90 min at ambient temperature; at the start of the reaction the dishes are shaken gently. The reaction is stopped by the addition of 50 μL/well of 500 mM phosphoric acid (H3PO4) and incubated for about 20 min at ambient temperature. The precipitate is transferred by harvesting onto filter plates (96-well microtitre filter plate: UniFilter GF/C; Messrs Perkin Elmer; No. 6005174), then washed 6 times with 50 mM H3PO4 and dried at 60° C. Then the plate is stuck down with sealing tape, 25 μL/well of scintillation solution (Microscint 0; Messrs. Perkin Elmer; No. 6013611) are added and the amount of P33 precipitated is measured using the Wallac Betacounter. The measured data are evaluated using Graphpad Prism software.
The % CTL values indicate the residual activity of the enzyme after the addition of the inhibitory compound in the solvent DMSO in relation to the enzyme activity in the solvent DMSO without the addition of a compound (control). The majority of the values were determined using the PDK1 kinase assay III described hereinbefore. The values marked with an asterisk (*) were determined using the PDK1 kinase assay II described hereinbefore.

SMILES	remaining activity at 10 µM [%]
Cn1cnc(Cn2cccc(C(=O)NC/C=C/c3ccc4c(c3)NC(=O)/C4=C\c3cnc[nH]3)c2=O)c1 [I-27, N-{(2E)-3-[(3Z)-3-(1H-imidazol-5-ylmethylidene)-2-oxo-2,3-dihydro-1H-indol-6-yl]prop-2-en-1-yl}-1-[(1-methyl-1H-imidazol-4-yl)methyl]-2-oxo-1,2-dihydropyridine-3-carboxamide]	47.7
Cc1ccc(Cn2cccc(C(=O)NC/C=C/c3ccc4c(c3)NC(=O)/C4=C\c3cnc[nH]3)c2=O)cn1 [I-24, N-{(2E)-3-[(3Z)-3-(1H-imidazol-5-ylmethylidene)-2-oxo-2,3-dihydro-1H-indol-6-yl]prop-2-en-1-yl}-1-[(6-methylpyridin-3-yl)methyl]-2-oxo-1,2-dihydropyridine-3-carboxamide]	20.1
O=C1Nc2cc(/C=C/CNC(=O)c3cccn(Cc4ccccn4)c3=O)ccc2/C1=C/c1ccc[nH]1 [I-6, 2-oxo-N-{(2E)-3-[(3Z)-2-oxo-3-(1H-pyrrol-2-ylmethylidene)-2,3-dihydro-1H-indol-6-yl]prop-2-en-1-yl}-1-(pyridin-2-ylmethyl)-1,2-dihydropyridine-3-carboxamide]	20.1
CN1CCC(Nc2ccc(Nc3ncc4cc(C#CCNC(=O)c5cccn(Cc6ccc(C(F)(F)F)nc6)c5=O)ccc4n3)cc2F)CC1 [II-7, N-{3-[2-({3-fluoro-4-[(1-methylpiperidin-4-yl)amino]phenyl}amino)quinazolin-6-yl]prop-2-yn-1-yl}-2-oxo-1-{[6-(trifluoromethyl)pyridin-3-yl]methyl}-1,2-dihydropyridine-3-carboxamide]	18.6
O=C1Nc2cc(/C=C/CNC(=O)c3cccn(Cc4cccnc4)c3=O)ccc2/C1=C/c1cnc[nH]1 [I-7, N-{(2E)-3-[(3Z)-3-(1H-imidazol-5-ylmethylidene)-2-oxo-2,3-dihydro-1H-indol-6-yl]prop-2-en-1-yl}-2-oxo-1-(pyridin-3-ylmethyl)-1,2-dihydropyridine-3-carboxamide]	14.5
O=C1Nc2cc(/C=C/CNC(=O)c3cccn(Cc4ccc(Cl)nc4)c3=O)ccc2/C1=C/c1ccc[nH]1 [I-2, 1-[(6-chloropyridin-3-yl)methyl]-2-oxo-N-{(2E)-3-[(3Z)-2-oxo-3-(1H-pyrrol-2-ylmethylidene)-2,3-dihydro-1H-indol-6-yl]prop-2-en-1-yl}-1,2-dihydropyridine-3-carboxamide]	21.4
O=C1Nc2cc(/C=C/CNC(=O)c3cccn(Cc4ccc(Cl)nc4)c3=O)ccc2/C1=C/c1cnc[nH]1 [I-1, 1-[(6-chloropyridin-3-yl)methyl]-N-{(2E)-3-[(3Z)-3-(1H-imidazol-5-ylmethylidene)-2-oxo-2,3-dihydro-1H-indol-6-yl]prop-2-en-1-yl}-2-oxo-1,2-dihydropyridine-3-carboxamide]	16.8
CN(C)CCNC(=O)c1cccc(-c2c[nH]c(/C=C3\C(=O)Nc4cc(/C=C/CNC(=O)c5cccn(Cc6ccc(Cl)nc6)c5=O)ccc43)c2)c1 [I-3, 1-[(6-chloropyridin-3-yl)methyl]-N-{(2E)-3-[(3Z)-3-{[4-(3-{[2-(dimethylamino)-ethyl]carbamoyl}phenyl)-1H-pyrrol-2-yl]methylidene}-2-oxo-2,3-dihydro-1H-indol-6-yl]prop-2-en-1-yl}-2-oxo-1,2-dihydropyridine-3-carboxamide]	18.9
O=C1Nc2cc(/C=C/CNC(=O)c3cccn(CC4CCCCC4)c3=O)ccc2/C1=C/c1cnc[nH]1 [I-25, 1-(cyclohexylmethyl)-N-{(2E)-3-[(3Z)-3-(1H-imidazol-5-ylmethylidene)-2-oxo-2,3-dihydro-1H-indol-6-yl]prop-2-en-1-yl}-2-oxo-1,2-dihydropyridine-3-carboxamide]	15.1
O=C1Nc2cc(/C=C/CNC(=O)c3cccn(Cc4cccnc4)c3=O)ccc2/C1=C/c1ccc[nH]1 [I-4, 2-oxo-N-{(2E)-3-[(3Z)-2-oxo-3-(1H-pyrrol-2-ylmethylidene)-2,3-dihydro-1H-indol-6-yl]prop-2-en-1-yl}-1-(pyridin-3-ylmethyl)-1,2-dihydropyridine-3-carboxamide]	18.6
CN1CCC(N(C)c2ccc(Nc3ncc4cc(/C=C/CNC(=O)c5cccn(Cc6ccc(C(F)(F)F)nc6)c5=O)ccc4n3)cc2)CC1 [III-15, N-{(2E)-3-[2-({4-[methyl(1-methylpiperidin-4-yl)amino]phenyl}amino)quinazolin-6-yl]prop-2-en-1-yl}-2-oxo-1-{[6-(trifluoromethyl)pyridin-3-yl]methyl}-1,2-dihydropyridine-3-carboxamide]	21
O=C1Nc2cc(/C=C/CNC(=O)c3cccn(Cc4ccncc4)c3=O)ccc2/C1=C/c1ccc[nH]1 [I-5, 2-oxo-N-{(2E)-3-[(3Z)-2-oxo-3-(1H-pyrrol-2-ylmethylidene)-2,3-dihydro-1H-indol-6-yl]prop-2-en-1-yl}-1-(pyridin-4-ylmethyl)-1,2-dihydropyridine-3-carboxamide]	39.6
CN(C)Cc1ccc(Nc2ncc3cc(/C=C/CNC(=O)c4cccn(Cc5cccnc5)c4=O)ccc3n2)cc1 [III-12, N-{(2E)-3-[2-({4-[(dimethylamino)methyl]phenyl}amino)quinazolin-6-yl]prop-2-en-1-yl}-2-oxo-1-(pyridin-3-ylmethyl)-1,2-dihydropyridine-3-carboxamide]	18.3
O=C1Nc2cc(/C=C/CNC(=O)c3cccn(CC4CCCCC4)c3=O)ccc2/C1=C/c1ccc[nH]1 [I-13, 1-(cyclohexylmethyl)-2-oxo-N-{(2E)-3-[(3Z)-2-oxo-3-(1H-pyrrol-2-ylmethylidene)-2,3-dihydro-1H-indol-6-yl]prop-2-en-1-yl}-1,2-dihydropyridine-3-carboxamide]	25.7
CN(C)Cc1ccc(Nc2ncc3cc(/C=C/CNC(=O)c4cccn(Cc5ccc(C(F)(F)F)nc5)c4=O)ccc3n2)cc1 [III-16, N-{(2E)-3-[2-({4-[(dimethylamino)methyl]phenyl}amino)quinazolin-6-yl]prop-2-en-1-yl}-2-oxo-1-{[6-(trifluoromethyl)pyridin-3-yl]methyl}-1,2-dihydropyridine-3-carboxamide]	19.2
CN(C)Cc1ccc(Nc2ncc3cc(C#CCNC(=O)c4cccn(Cc5ccc(C(F)(F)F)nc5)c4=O)ccc3n2)cc1 [II-6, N-{3-[2-({4-[(dimethylamino)methyl]phenyl}amino)quinazolin-6-yl]prop-2-yn-1-yl}-2-oxo-1-{[6-(trifluoromethyl)pyridin-3-yl]methyl}-1,2-dihydropyridine-3-carboxamide]	16
Cn1cncc1Cn1cccc(C(=O)NC/C=C/c2ccc3c(c2)NC(=O)/C3=C\c2cnc[nH]2)c1=O [I-26, N-{(2E)-3-[(3Z)-3-(1H-imidazol-5-ylmethylidene)-2-oxo-2,3-dihydro-1H-indol-6-yl]prop-2-en-1-yl}-1-[(1-methyl-1H-imidazol-5-yl)methyl]-2-oxo-1,2-dihydropyridine-3-carboxamide]	34.1
O=C1Nc2cc(/C=C/CNC(=O)c3cccn(Cc4ccncc4)c3=O)ccc2/C1=C/c1cnc[nH]1 [I-8, N-{(2E)-3-[(3Z)-3-(1H-imidazol-5-ylmethylidene)-2-oxo-2,3-dihydro-1H-indol-6-yl]prop-2-en-1-yl}-2-oxo-1-(pyridin-4-ylmethyl)-1,2-dihydropyridine-3-carboxamide]	25.1
CN(C)Cc1ccc(Nc2ncc3cc(/C=C/CNC(=O)c4cccn(Cc5ccc(Cl)nc5)c4=O)ccc3n2)cc1 [III-13, 1-[(6-chloropyridin-3-yl)methyl]-N-{(2E)-3-[2-({4-[(dimethylamino)methyl]-phenyl}amino)quinazolin-6-yl]prop-2-en-1-yl}-2-oxo-1,2-dihydropyridine-3-carboxamide]	13.6
